Measured values reported in US8138193B2, “Fused pyrazine compounds useful for the treatment of degenerative and inflammatory diseases” (Janssen Pharmaceutica N.V., priority 2007, dated 2012).

What follows are compounds tested against T1, MAPKAPK5 (Homo sapiens, UniProt Q8IW41) (assay: MAPKAP-K5 FlashPlate kinase assay (33P-ATP)). Details: 0.6 μM ATP, 30 minutes at room temperature.
T1 sequence (Q8IW41 1-471 isoform Q8IW41-2): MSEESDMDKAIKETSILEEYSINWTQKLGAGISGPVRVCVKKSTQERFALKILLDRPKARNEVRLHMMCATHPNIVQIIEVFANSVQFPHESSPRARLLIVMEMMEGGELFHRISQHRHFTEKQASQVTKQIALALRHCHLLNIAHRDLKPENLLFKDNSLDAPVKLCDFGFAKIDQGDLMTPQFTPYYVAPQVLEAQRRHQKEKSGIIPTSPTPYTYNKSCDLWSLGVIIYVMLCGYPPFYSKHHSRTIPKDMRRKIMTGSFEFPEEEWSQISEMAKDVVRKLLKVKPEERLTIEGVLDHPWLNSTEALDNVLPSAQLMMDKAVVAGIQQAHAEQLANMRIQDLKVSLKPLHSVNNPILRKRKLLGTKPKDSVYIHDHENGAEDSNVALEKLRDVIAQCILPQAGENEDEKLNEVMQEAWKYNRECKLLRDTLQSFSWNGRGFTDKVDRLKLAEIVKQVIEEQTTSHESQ
Assay type: biochemical
Experimental: 3 μM MAPKAP-K5 peptide substrate

Structure (SMILES) | IC50
NC(=O)c1cc(-c2cnc(NC3CCN(Cc4ccccc4)CC3)c3ncnn23)co1 [Example 18, 4-[8-(1-BENZYL-PIPERIDIN-4-YLAMINO)-[1,2,4]TRIAZOLO[1,5-A]PYRAZIN-5-YL]-FURAN-2-CARBOXYLIC ACID AMIDE] | > 1000 nM
NC(=O)c1cc(-c2cnc(NC3CCC3)c3ncnn23)co1 [Example 2, 4-(8-(cyclobutylamino)-[1,2,4]triazolo[1,5-a]pyrazin-5-yl)furan-2-carboxamide] | 101 to 500 nM
NC(=O)c1cc(-c2cnc(NC3CCN(Cc4ccccc4)C3)c3ncnn23)co1 (stereo not drawn) [Example 4, 4-[8-(1-Benzyl-pyrrolidin-3-ylamino)-[1,2,4]triazolo[1,5-a]pyrazin-5-yl]-furan-2-carboxylic acid amide] | 501 to 1000 nM
O=C1NCc2cc(-c3cnc(NC4CC4)c4ncnn34)ccc21 [Example 14, 5-(8-(CYCLOPROPYLAMINO)-[1,2,4]TRIAZOLO[1,5-A]PYRAZIN-5-YL)ISOINDOLIN-1-ONE] | 101 to 500 nM
O=C1NCc2cc(-c3cnc(NC4CCC(O)CC4)c4ncnn34)ccc21 (stereo not drawn) [Example 15, 5-(8-(4-HYDROXYCYCLOHEXYLAMINO)-[1,2,4]TRIAZOLO[1,5-A]PYRAZIN-5-YL)ISOINDOLIN-1-ONE] | 101 to 500 nM
CC(C)(C)OC(=O)NC1CCC(Nc2ncc(-c3ccc4c(c3)CNC4=O)n3ncnc23)CC1 (stereo not drawn) [Example 16, TERT-BUTYL 4-(5-(1-OXOISOINDOLIN-5-YL)-[1,2,4]TRIAZOLO[1,5-A]PYRAZIN-8-YLAMINO)CYCLOHEXYLCARBAMATE] | 501 to 1000 nM
NC(=O)c1cc(-c2cnc(NC3CCN(Cc4ccccc4)C3)c3nccn23)co1 (single isomer, unassigned) [Example 17, 4-[8-(1-BENZYL-PYRROLIDIN-3-YLAMINO)-IMIDAZO[1,2-A]PYRAZIN-5-YL]-FURAN-2-CARBOXYLIC ACID AMIDE] | > 1000 nM
O=C1NCc2cc(-c3cnc(NC4CCC4)c4nccn34)ccc21 [Example 5, 5-(8-(CYCLOBUTYLAMINO)IMIDAZO[1,2-A]PYRAZIN-5-YL)ISOINDOLIN-1-ONE] | 101 to 500 nM
NC(=O)c1cc(-c2cnc(NC3CCCC3)c3nccn23)co1 [Example 7, 4-(8-(CYCLOPENTYLAMINO)IMIDAZO[1,2-A]PYRAZIN-5-YL)FURAN-2-CARBOXAMIDE] | 501 to 1000 nM
CC(C)(C)OC(=O)N1CCC(Nc2ncc(-c3ccc4c(c3)CNC4=O)n3ncnc23)CC1 [Example 12, TERT-BUTYL 4-(5-(1-OXOISOINDOLIN-5-YL)-[1,2,4]TRIAZOLO[1,5-A]PYRAZIN-8-YLAMINO)PIPERIDINE-1-CARBOXYLATE] | 501 to 1000 nM
O=C1NCc2cc(-c3cnc(NC4CCCCC4)c4nccn34)ccc21 [Example 1, 5-(8-(cyclohexylamino)imidazo[1,2-a]pyrazin-5-yl)isoindolin-1-one] | 101 to 500 nM
NC(=O)c1cc(-c2cnc(NC3CCC3)c3nccn23)co1 [Example 6, 4-(8-(CYCLOBUTYLAMINO)IMIDAZO[1,2-A]PYRAZIN-5-YL)FURAN-2-CARBOXAMIDE] | 101 to 500 nM
